{
  "source": "patent US6355799B1",
  "about": "“Substituted benzene compounds, process for their preparation, and herbicidal and defoliant compositions containing them” (ISK Americas Incorporated, priority 1997, dated 2002)",
  "format_in_all_cases": "in vivo",
  "key": {"[1]": {"test_system": "barnyardgrass (Echinochloa crus-galli, ECHCG)", "test": "Post-emerge test, greenhouse herbicide activity screening", "conditions": "post-emerge, 14 days after application, rating scale 0-100", "outline": "(§1)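 Fourteen days after spraying, crop and weed injury was graded visually from 0, no effect, to 100, every plant dead. Test substances were dissolved in acetone and applied at 15–1000 g ai/ha with a flat-fan nozzle. Application was either pre-emergence, one day after sowing, or post-emergence at the 2–3 leaf stage.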"}, "[2]": {"test_system": "lambsquarters (Chenopodium album, CHEAL)", "test": "Post-emerge test, greenhouse herbicide activity screening", "conditions": "post-emerge, 14 days after application, rating scale 0-100", "outline": "as §1"}, "[3]": {"test_system": "ivyleaf morningglory (Ipomoea hederacea, IPOHE)", "test": "Post-emerge test, greenhouse herbicide activity screening", "conditions": "post-emerge, 14 days after application, rating scale 0-100", "outline": "as §1"}, "[4]": {"test_system": "sicklepod (Cassia obtusifolia, CASOB)", "test": "Post-emerge test, greenhouse herbicide activity screening", "conditions": "post-emerge, 14 days after application, rating scale 0-100", "outline": "as §1"}, "[5]": {"test_system": "large crabgrass (Digitaria sanguinalis, DIGSA)", "test": "Post-emerge test, greenhouse herbicide activity screening", "conditions": "post-emerge, 14 days after application, rating scale 0-100", "outline": "as §1"}, "[6]": {"test_system": "green foxtail (Setaria viridis, SETVI)", "test": "Post-emerge test, greenhouse herbicide activity screening", "conditions": "post-emerge, 14 days after application, rating scale 0-100", "outline": "as §1"}, "[7]": {"test_system": "velvetleaf (Abutilon theophrasti, ABUTH)", "test": "Post-emerge test, greenhouse herbicide activity screening", "conditions": "post-emerge, 14 days after application, rating scale 0-100", "outline": "as §1"}, "[8]": {"test_system": "redroot pigweed (Amaranthus retroflexus, AMARE)", "test": "Post-emerge test, greenhouse herbicide activity screening", "conditions": "post-emerge, 14 days after application", "outline": "as §1"}, "[9]": {"test_system": "barnyardgrass (Echinochloa crus-galli, ECHCG)", "test": "Pre-emerge test, greenhouse herbicide activity screening", "conditions": "pre-emerge, 14 days after application, rating scale 0-100", "outline": "(§2)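 Plants grown in 10 cm pots of sandy loam mix received acetone-dissolved compounds through a moving flat-fan nozzle. Doses ranged from 15 to 1000 g ai/ha. Pre-emerge pots were seeded one day earlier, post-emerge pots 8–21 days earlier. Fourteen days on, each pot was graded 0–100 for damage.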"}, "[10]": {"test_system": "lambsquarters (Chenopodium album, CHEAL)", "test": "Pre-emerge test, greenhouse herbicide activity screening", "conditions": "pre-emerge, 14 days after application, rating scale 0-100", "outline": "as §2"}, "[11]": {"test_system": "ivyleaf morningglory (Ipomoea hederacea, IPOHE)", "test": "Pre-emerge test, greenhouse herbicide activity screening", "conditions": "pre-emerge, 14 days after application, rating scale 0-100", "outline": "as §2"}, "[12]": {"test_system": "sicklepod (Cassia obtusifolia, CASOB)", "test": "Pre-emerge test, greenhouse herbicide activity screening", "conditions": "pre-emerge, 14 days after application, rating scale 0-100", "outline": "as §2"}, "[13]": {"test_system": "large crabgrass (Digitaria sanguinalis, DIGSA)", "test": "Pre-emerge test, greenhouse herbicide activity screening", "conditions": "pre-emerge, 14 days after application, rating scale 0-100", "outline": "as §2"}, "[14]": {"test_system": "green foxtail (Setaria viridis, SETVI)", "test": "Pre-emerge test, greenhouse herbicide activity screening", "conditions": "pre-emerge, 14 days after application, rating scale 0-100", "outline": "as §2"}, "[15]": {"test_system": "johnsongrass (Sorghum halepense, SORHA)", "test": "Pre-emerge test, greenhouse herbicide activity screening", "conditions": "pre-emerge, 14 days after application, rating scale 0-100", "outline": "as §2"}, "[16]": {"test_system": "velvetleaf (Abutilon theophrasti, ABUTH)", "test": "Pre-emerge test, greenhouse herbicide activity screening", "conditions": "pre-emerge, 14 days after application, rating scale 0-100", "outline": "as §2"}, "[17]": {"test_system": "upland rice (Oryza sp., var. Tebonnet, RICE)", "test": "Pre-emerge test, crop safety", "conditions": "pre-emerge, 14 days after application, rating scale 0-100", "outline": "(§3)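 Applied at 15–1000 g ai/ha from acetone in 187 l/ha spray volume. Post-emergence applications included 0.25% v/v non-ionic surfactant and reached plants sown 8–21 days before. Pre-emergence applications were incorporated by surface watering. Efficacy or crop damage was rated on a 0–100 scale after 14 days.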"}, "[18]": {"test_system": "field corn (Zea mays L., var. Dekalb 535, CORN)", "test": "Pre-emerge test, crop safety", "conditions": "pre-emerge, 14 days after application, rating scale 0-100", "outline": "as §3"}, "[19]": {"test_system": "redroot pigweed (Amaranthus retroflexus, AMARE)", "test": "Pre-emerge test, greenhouse herbicide activity screening", "conditions": "pre-emerge, 14 days after application, rating scale 0-100", "outline": "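Herbicidal damage is scored 0 (none) to 100 (complete plant death) two weeks after a simulated field spray. Rates span 15–1000 g ai/ha, delivered in acetone at 187 l/ha. For post-emergence treatments, plants have 2–3 leaves and the spray carries 0.25% v/v non-ionic surfactant.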"}, "[20]": {"test_system": "upland rice (Oryza sp., var. Tebonnet, RICE)", "test": "Post-emerge test, crop safety", "conditions": "post-emerge, 14 days after application, rating scale 0-100", "outline": "(§4)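 Each test used a mechanized track sprayer delivering 187 l/ha of acetone solution at 15–1000 g ai/ha. Post-emerge foliage at 2–3 leaves was treated with added 0.25% v/v non-ionic surfactant and bottom-watered only. Injury was assessed on day 14, where 100 means total kill.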"}, "[21]": {"test_system": "field corn (Zea mays L., var. Dekalb 535, CORN)", "test": "Post-emerge test, crop safety", "conditions": "post-emerge, 14 days after application, rating scale 0-100", "outline": "as §4"}},
  "data": [
    {"smiles": "COc1c(Cl)cc(F)c(-n2c(=O)cc(C(F)(F)F)n(C)c2=O)c1NNC(=O)Oc1ccccc1", "note": "[15-7]", "values": [
      {"measurement": "Post-emerge Herbicidal Activity ECHCG (phytotoxicity rating)", "setting": "[1]; 63 g ai/ha", "result": 40},
      {"measurement": "Post-emerge Herbicidal Activity ECHCG (phytotoxicity rating)", "setting": "[1]; 250 g ai/ha", "result": 95},
      {"measurement": "Post-emerge Herbicidal Activity CHEAL (phytotoxicity rating)", "setting": "[2]; 63 g ai/ha", "result": 100},
      {"measurement": "Post-emerge Herbicidal Activity CHEAL (phytotoxicity rating)", "setting": "[2]; 250 g ai/ha", "result": 100},
      {"measurement": "Post-emerge Herbicidal Activity IPOHE (phytotoxicity rating)", "setting": "[3]; 63 g ai/ha", "result": 100},
      {"measurement": "Post-emerge Herbicidal Activity IPOHE (phytotoxicity rating)", "setting": "[3]; 250 g ai/ha", "result": 100},
      {"measurement": "Post-emerge Herbicidal Activity CASOB (phytotoxicity rating)", "setting": "[4]; 63 g ai/ha", "result": 60},
      {"measurement": "Post-emerge Herbicidal Activity CASOB (phytotoxicity rating)", "setting": "[4]; 250 g ai/ha", "result": 100},
      {"measurement": "Post-emerge Herbicidal Activity DIGSA (phytotoxicity rating)", "setting": "[5]; 63 g ai/ha", "result": 20},
      {"measurement": "Post-emerge Herbicidal Activity DIGSA (phytotoxicity rating)", "setting": "[5]; 250 g ai/ha", "result": 75},
      {"measurement": "Post-emerge Herbicidal Activity SETVI (phytotoxicity rating)", "setting": "[6]; 63 g ai/ha", "result": 30},
      {"measurement": "Post-emerge Herbicidal Activity SETVI (phytotoxicity rating)", "setting": "[6]; 250 g ai/ha", "result": 90},
      {"measurement": "Post-emerge Herbicidal Activity ABUTH (phytotoxicity rating)", "setting": "[7]; 63 g ai/ha", "result": 100},
      {"measurement": "Post-emerge Herbicidal Activity ABUTH (phytotoxicity rating)", "setting": "[7]; 250 g ai/ha", "result": 100},
      {"measurement": "Post-emerge Herbicidal Activity AMARE (phytotoxicity rating)", "setting": "[8]; 63 g ai/ha, rating scale 0-100 (0 no damage, 100 complete death)", "result": 100},
      {"measurement": "Post-emerge Herbicidal Activity AMARE (phytotoxicity rating)", "setting": "[8]; 250 g ai/ha, rating scale 0-100", "result": 100},
      {"measurement": "phytotoxicity rating ECHCG", "setting": "[9]; 63 g ai/ha", "result": 80},
      {"measurement": "phytotoxicity rating ECHCG", "setting": "[9]; 250 g ai/ha", "result": 100},
      {"measurement": "phytotoxicity rating CHEAL", "setting": "[10]; 63 g ai/ha", "result": 100},
      {"measurement": "phytotoxicity rating CHEAL", "setting": "[10]; 250 g ai/ha", "result": 100},
      {"measurement": "phytotoxicity rating IPOHE", "setting": "[11]; 63 g ai/ha", "result": 95},
      {"measurement": "phytotoxicity rating IPOHE", "setting": "[11]; 250 g ai/ha", "result": 100},
      {"measurement": "phytotoxicity rating CASOB", "setting": "[12]; 63 g ai/ha", "result": 100},
      {"measurement": "phytotoxicity rating CASOB", "setting": "[12]; 250 g ai/ha", "result": 100},
      {"measurement": "phytotoxicity rating DIGSA", "setting": "[13]; 63 g ai/ha", "result": 90},
      {"measurement": "phytotoxicity rating DIGSA", "setting": "[13]; 250 g ai/ha", "result": 100},
      {"measurement": "phytotoxicity rating SETVI", "setting": "[14]; 63 g ai/ha", "result": 100},
      {"measurement": "phytotoxicity rating SETVI", "setting": "[14]; 250 g ai/ha", "result": 100},
      {"measurement": "phytotoxicity rating SORHA", "setting": "[15]; 63 g ai/ha", "result": 95},
      {"measurement": "phytotoxicity rating SORHA", "setting": "[15]; 250 g ai/ha", "result": 100},
      {"measurement": "phytotoxicity rating ABUTH", "setting": "[16]; 63 g ai/ha", "result": 100},
      {"measurement": "phytotoxicity rating ABUTH", "setting": "[16]; 250 g ai/ha", "result": 100},
      {"measurement": "phytotoxicity rating RICE", "setting": "[17]; 63 g ai/ha", "result": 90},
      {"measurement": "phytotoxicity rating RICE", "setting": "[17]; 250 g ai/ha", "result": 100},
      {"measurement": "phytotoxicity rating CORN", "setting": "[18]; 63 g ai/ha", "result": 85},
      {"measurement": "phytotoxicity rating CORN", "setting": "[18]; 250 g ai/ha", "result": 100},
      {"measurement": "phytotoxicity rating AMARE", "setting": "[19]; 63 g ai/ha", "result": 100},
      {"measurement": "phytotoxicity rating AMARE", "setting": "[19]; 250 g ai/ha", "result": 100},
      {"measurement": "Post-emerge Herbicidal Activity RICE (crop damage rating)", "setting": "[20]; 63 g ai/ha", "result": 50},
      {"measurement": "Post-emerge Herbicidal Activity RICE (crop damage rating)", "setting": "[20]; 250 g ai/ha", "result": 90},
      {"measurement": "Post-emerge Herbicidal Activity CORN (crop damage rating)", "setting": "[21]; 63 g ai/ha", "result": 60},
      {"measurement": "Post-emerge Herbicidal Activity CORN (crop damage rating)", "setting": "[21]; 250 g ai/ha", "result": 80}
    ]}
  ]
}
